In this assay the target is T1, mutant G12C K-RAS (Homo sapiens, UniProt P01116, G12C).
T1 construct: made in house; host or cells: E. coli BL21
As to the kind of experiment: covalent adduct formation (CAF) with mutant G12C K-RAS. Conditions: for % CAF @ 10 μM,1 h: Table 6; for CAF: Table 3, Pyridone Core-Morpholine Unsubstituted. Further details: CAF: unit not given here. The assay is classed as binding. The protocol: Embodiments disclosed herein are further illustrated by the following examples in Tables 1-4 and the Examples hereinbelow. The Tables indicate the compound number, structure, the observed mass spectral molecular weight peak, and covalent adduct formation (CAF) with a mutant G12C K-RAS after 60 minutes at a concentration of 10 micromolar.

[1] abbreviates: after 60 minutes at 10 micromolar.

The values below come from patent US12162893B2 (Erasca, Inc., priority 2020, dated 2024).

The structures appear in SMILES notation.

In the case of `C=CC(=O)N1C[C@H](C)N(c2nc(=O)n3c4c(c(-c5ccc(F)cc5F)c(Cl)cc24)OC[C@H]3CN2CCS(=O)(=O)CC2)C[C@H]1C` [Example 268, (3R)-7-((2S,5R)-4-acryloyl-2,5-dimethylpiperazin-1-yl)-9-chloro-10-(2,4-difluorophenyl)-3-((1,1-dioxidothiomorpholino)methyl)-2H-[1,4]oxazino[2,3,4-ij]quinazolin-5(3H)-one], the “% CAF @ 10 μM,1 h” value (1 h) worked out at 68%. On to `C=CC(=O)N1CCN(c2c(C#N)c(=O)n3c4c(c(-c5c(O)cccc5F)c(Cl)cc24)OCC3)[C@@H](C)C1` [Example 38, 7-((S)-4-acryloyl-2-methylpiperazin-1-yl)-9-chloro-10-(2-fluoro-6-hydroxyphenyl)-5-oxo-3,5-dihydro-2H-[1,4]oxazino[2,3,4-ij]quinoline-6-carbonitrile], for which, under setting [1], the CAF was 49.1. For `C=CC(=O)N1CCN(c2nc(=O)n3c4c(c(-c5c(O)cccc5F)c(Cl)cc24)OC[C@@H]3CN2CCC(F)(F)C2)[C@@H](C)C1` (atropisomer, axis not shown) [Example 229, (3S,10R)-7-((S)-4-acryloyl-2-methylpiperazin-1-yl)-9-chloro-3-((3,3-difluoropyrrolidin-1-yl)methyl)-10-(2-fluoro-6-hydroxyphenyl)-2,3-dihydro-5H-[1,4]oxazino[2,3,4-ij]quinazolin-5-one], under “1 h”, the “% CAF @ 10 μM,1 h” value was 1.6%.

Regarding `C=CC(=O)N1C[C@H](C)N(c2nc(=O)n3c4c(c(-c5c(F)ccc6[nH]nnc56)ccc24)OCC3)C[C@H]1C` [Example 223, 7-((2S,5R)-4-acryloyl-2,5-dimethylpiperazin-1-yl)-10-(5-fluoro-1H-benzo[d][1,2,3]triazol-4-yl)-2,3-dihydro-5H-[1,4]oxazino[2,3,4-ij]quinazolin-5-one], under “1 h”, the “% CAF @ 10 μM,1 h” value is listed as 0%. As to `C=CC(=O)N1CCN(c2nc(=O)n3c4c(c(-c5c(O)cccc5F)c(Cl)cc24)OC[C@@H]3CO)CC1` [Example 21, (3S)-7-(4-acryloylpiperazin-1-yl)-9-chloro-10-(2-fluoro-6-hydroxyphenyl)-3-(hydroxymethyl)-2H-[1,4]oxazino[2,3,4-ij]quinazolin-5(3H)-one], the “% CAF (60 min)” value (Table 2, Pyrimidone Core-Morpholine Substituted, after 60 minutes at 10 micromolar) was determined as 72.8%. `C=CC(=O)N1C[C@H](C)N(c2nc(=O)n3c4c(c(-c5ccc(F)cc5F)c(Cl)cc24)OC[C@H]3CCCN2C3CCC2COC3)C[C@H]1C` [Example 254, (3R)-3-(3-(3-oxa-8-azabicyclo[3.2.1]octan-8-yl)propyl)-7-((2S,5R)-4-acryloyl-2,5-dimethylpiperazin-1-yl)-9-chloro-10-(2,4-difluorophenyl)-2,3-dihydro-5H-[1,4]oxazino[2,3,4-ij]quinazolin-5-one]: the “% CAF @ 10 μM,1 h” value (1 h) worked out at 99.5%. For the compound `C=CC(=O)N1C[C@H](C)N(c2nc(=O)n3c4c(c(-c5ccc(F)cc5F)c(Cl)cc24)OC[C@@H]3COC[C@@H]2CCCN2C)C[C@H]1C` [Example 296, (3S)-7-((2S,5R)-4-acryloyl-2,5-dimethylpiperazin-1-yl)-9-chloro-10-(2,4-difluorophenyl)-3-((((S)-1-methylpyrrolidin-2-yl)methoxy)methyl)-2,3-dihydro-5H-[1,4]oxazino[2,3,4-ij]quinazolin-5-one], the “% CAF @ 10 μM,1 h” value (1 h) is given as 79.8%. Regarding `C=CC(=O)N1CCN(c2nc(=O)n3c4c(c(-c5ccc(F)cc5F)c(C(F)(F)F)cc24)SCC3)C2CS(=O)(=O)CC21` (stereo not shown) [Example 100, 7-(4-acryloyl-6,6-dioxidohexahydrothieno[3,4-b]pyrazin-1(2H)-yl)-10-(2,4-difluorophenyl)-9-(trifluoromethyl)-2,3-dihydro-5H-[1,4]thiazino[2,3,4-ij]quinazolin-5-one], the “% CAF @ 10 uM, 1 h” value (Table 5, 10 uM, 1 h) is reported as 94%. On to `C=CC(=O)N1C[C@H](C)N(c2nc(=O)n3c4c(c(-c5ccc(F)cc5F)c(Cl)cc24)OC[C@H]3CCCN2CCC(C(=O)NC3CC3)CC2)C[C@H]1C` [Example 278], for which the “% CAF @ 10 μM,1 h” value (1 h) amounted to 98.3%. In the case of `C=CC(=O)N1CCN(c2c(C#N)c(=O)n3c4c(c(-c5c(O)cccc5F)c(Cl)cc24)OCC3)[C@@H](C)C1` [Example 40, (R)-7-((S)-4-acryloyl-2-methylpiperazin-1-yl)-9-chloro-10-(2-fluoro-6-hydroxyphenyl)-5-oxo-3,5-dihydro-2H-[1,4]oxazino[2,3,4-ij]quinoline-6-carbonitrile], under setting [1], the CAF is 75.5.

As for `C=CC(=O)N1C[C@H](C)N(c2nc(=O)n3c4c(c(-c5c(C)ccc6[nH]ncc56)c(Cl)cc24)OC[C@H]3Cn2cccn2)C[C@H]1C` (atropisomer, axis not shown) [Example 319, (3R,10S)-3-((1H-pyrazol-1-yl)methyl)-7-((2S,5R)-4-acryloyl-2,5-dimethylpiperazin-1-yl)-9-chloro-10-(5-methyl-1H-indazol-4-yl)-2,3-dihydro-5H-[1,4]oxazino[2,3,4-ij]quinazolin-5-one], the “% CAF @ 10 μM,1 h” value (1 h) amounted to 0%.

Take `C=CC(=O)N1C[C@H](C)N(c2nc(=O)n3c4c(c(-c5c(O)cccc5F)c(Cl)cc24)OC[C@@H]3CCCN2CCOCC2)C[C@H]1C` (atropisomer, axis not shown) [Example 226, (3S,10S)-7-((2S,5R)-4-acryloyl-2,5-dimethylpiperazin-1-yl)-9-chloro-10-(2-fluoro-6-hydroxyphenyl)-3-(3-morpholinopropyl)-2,3-dihydro-5H-[1,4]oxazino[2,3,4-ij]quinazolin-5-one]: the “% CAF @ 10 μM,1 h” value (1 h) was determined as 97.8%.

For the compound `C=CC(=O)N1C[C@H](C)N(c2nc(=O)n3c4c(c(-c5c(O)cccc5F)c(Cl)cc24)OC[C@H]3CN2CCN(C)CC2)C[C@H]1C` (atropisomer, axis not shown) [Example 301, (3R,10S)-7-((2S,5R)-4-acryloyl-2,5-dimethylpiperazin-1-yl)-9-chloro-10-(2-fluoro-6-hydroxyphenyl)-3-((4-methylpiperazin-1-yl)methyl)-2,3-dihydro-5H-[1,4]oxazino[2,3,4-ij]quinazolin-5-one], the “% CAF @ 10 μM,1 h” value (1 h) was determined as 52.1%. The same measure, in the same setting: for `C=CC(=O)N1C[C@H](C)N(c2nc(=O)n3c4c(c(-c5ccc(F)cc5F)c(Cl)cc24)OC[C@@H]3CC2(O)CCN(C)CC2)C[C@H]1C` [Example 304, (3S)-7-((2S,5R)-4-acryloyl-2,5-dimethylpiperazin-1-yl)-9-chloro-10-(2,4-difluorophenyl)-3-((4-hydroxy-1-methylpiperidin-4-yl)methyl)-2,3-dihydro-5H-[1,4]oxazino[2,3,4-ij]quinazolin-5-one] the value was 45.1%.

In the case of `C=CC(=O)N1C[C@H](C)N(c2nc(=O)n3c4c(c(-c5c(O)cccc5F)c(Cl)cc24)OC[C@H]3CN2CCC(F)(F)C2)C[C@H]1C` (atropisomer, axis not shown) [Example 222, (3R,10S)-7-((2S,5R)-4-acryloyl-2,5-dimethylpiperazin-1-yl)-9-chloro-3-((3,3-difluoropyrrolidin-1-yl)methyl)-10-(2-fluoro-6-hydroxyphenyl)-2,3-dihydro-5H-[1,4]oxazino[2,3,4-ij]quinazolin-5-one], the “% CAF @ 10 μM,1 h” value (1 h) is 1.4%. On the same count and under the same terms, with `C=CC(=O)N1C[C@H](C)N(c2nc(=O)n3c4c(c(-c5c(O)cccc5F)c(Cl)cc24)OC[C@H]3CN2CCOCC2)C[C@H]1C` (atropisomer, axis not shown) [Example 210, (3R,10R)-7-((2S,5R)-4-acryloyl-2,5-dimethylpiperazin-1-yl)-9-chloro-10-(2-fluoro-6-hydroxyphenyl)-3-(morpholinomethyl)-2,3-dihydro-5H-[1,4]oxazino[2,3,4-ij]quinazolin-5-one] the figure was 0%.
